The source of these data is patent US6846933B1, “Antimycobacterial compounds and method for making the same” (priority 2000, dated 2005).

Assay [1] deals with M. tuberculosis strain resistant to isoniazid (ATCC 35822). The assay can be described thus: microbe, parasite or virus in culture. Format: cell-based. Conditions: Mycobacterium tuberculosis.
Assay [2] concerns M. tuberculosis strain resistant to rifampin (ATCC 35838). The assay can be described thus: microbe, parasite or virus in culture. The assay is classed as cell-based. To be noted: Mycobacterium tuberculosis.
[3] abbreviates: ATCC35822, read-out: MIC INH-R (ug/ml).
Setting [4] is: ATCC35838, read-out: MIC RMP-R (ug/ml).

≈ marks a conversion by molar mass, not a printed value. Where two headings read alike, the source gives them in different places. Some results are limits rather than exact numbers.

Take `O=C(NN=C1CCCC1)c1ccncc1` [Sample ID 111298]: the MIC was over 0.75 µg/mL in assay [1] (setting [3]) and 0.05 µg/mL (≈ 0.246 µM) in assay [2] (setting [4]).

In the case of `CCOC(=O)/C(CCc1ccccc1)=N\NC(=O)c1ccncc1` [Sample ID 132358], the MIC in assay [1] (setting [3]) is over 3.2 µg/mL; in assay [2] (setting [4]), 0.1 µg/mL (≈ 0.307 µM).

With `CO[C@H]1/C=C/O[C@@]2(C)Oc3c(C)c(O)c4c(O)c(c(/C=N/N5CCN(C)CC5)c(O)c4c3C2=O)NC(=O)/C(C)=C\C=C\[C@H](C)[C@H](O)[C@@H](C)[C@@H](O)[C@@H](C)[C@H](OC(C)=O)[C@@H]1C` [RMP, rifampin, reference compound], the MIC was 0.5 µg/mL in assay [1] (ATCC35822, read-out: MIC of RMP vs INH-R (Comment, Table 9)) and over 8 µg/mL in assay [2] (ATCC35838, read-out: MIC of RMP vs RMP-R (Comment, Table 9)).

Consider `O=C(N/N=C/c1cc(Cl)ccc1Cl)c1ccncc1` [Sample ID 117150], for which the MIC in assay [1] (setting [3]) is over 3.25 µg/mL; in assay [2] (setting [4]), under 0.05 µg/mL.

Consider `CC(C)=CCCC(C)C/C=N/NC(=O)c1ccncc1` (stereo not shown) [Sample ID 102044], for which the MIC in assay [1] (setting [3]) was 3.13 µg/mL (≈ 11.4 µM); in assay [2] (setting [4]), under 0.1 µg/mL.

Turning to `CC1C/C(=N/NC(=O)c2ccncc2)CC(C)(C)C1` (stereo not shown) [Sample ID 114353], the MIC in assay [1] (setting [3]) was under 6.25 µg/mL; in assay [2] (setting [4]) it was under 0.1 µg/mL.

Take `COc1ccc(/C=N/NC(=O)c2ccncc2)cc1` [Sample ID 102866]: the MIC in assay [1] (setting [3]) was 3.25 µg/mL (≈ 12.7 µM); in assay [2] (setting [4]) it was under 0.05 µg/mL.

Regarding `O=C(N/N=C/C=C(c1ccccc1)c1ccccc1)c1ccncc1` [Sample ID 132532], the MIC is over 3.2 µg/mL in assay [1] (setting [3]) and 0.1 µg/mL (≈ 0.305 µM) in assay [2] (setting [4]).
